Results taken from patent US10335409B2 (priority 2012, dated 2019).
Like-named read-outs stand apart in the source and are kept apart here.

What was measured:
[1] = test system: genotype 1a (H77) stable HCV replicon in Huh-7-derived cells; assay: Stable subgenomic HCV replicon EC50, genotype 1a (Renilla luciferase); type: cell-based, hepatitis C virus; details: stable replicon genotype 1a, 72 h, read-out: EC50 1A RLUC
How it was run: (§1)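 Compounds, three-fold diluted, were applied to Huh-7-derived cells harbouring luciferase replicons (genotype 1a H77, 1b Con1, 2a JFH-1, 4a ED43, with strain-specific adaptive mutations). Seventy-two hours later, intracellular replication was gauged by Renilla luciferase activity and EC50 derived by regression.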

[2] = test system: genotype 1b NS3/4a protease inhibitor resistant variant D168A transient HCV replicon in Huh-7-derived cells; assay: Transient-transfected HCV replicon EC50, genotype 1b D168A; type: cell-based, hepatitis C virus; details: 72 h
[3] = test system: genotype 2a (JFH-1) stable HCV replicon in Huh-7-derived cells; assay: Stable subgenomic HCV replicon EC50, genotype 2a (Renilla luciferase); type: cell-based, hepatitis C virus; details: stable replicon genotype 2a, 72 h, read-out: EC50 2A RLUC
How it was run: as §1

[4] = test system: genotype 1a NS3/4a protease inhibitor resistant variant R155K transient HCV replicon in Huh-7-derived cells; assay: Transient-transfected HCV replicon EC50, genotype 1a R155K; type: cell-based, hepatitis C virus; details: 72 h
[5] = biological target: HCV NS3 protease domain genotype 3a (Hepatitis C virus genotype 3a, UniProt Q81258); assay: Ki determination, NS3 protease genotype 3a (fluorogenic depsipeptide substrate); type: biochemical; details: 200 pM enzyme, NS4A peptide
Text: Purified NS3 protease domain (amino acids 1-181) of the genotype 1b and 3a virus were generated as above. The internally quenched fluorogenic depsipeptide substrate Ac-DED(Edans)-EEAbuΨ[COO]ASK(Dabcyl)-NH2 and a synthetic peptide containing the hydrophobic core residues of the NS4A protein cofactor ([…]; NS4A peptide) were obtained from Anaspec, Inc. (San Jose, Calif.). Other chemicals and biochemicals were of reagent grade or better and were purchased from standard suppliers.
Reactions were run at room temperature in buffer consisting of 50 mM HEPES, 40% glycerol, 0.05% Triton X-100, 10 mM DTT, and 10% DMSO. The final assay solutions contained 50 pM NS3 genotype 1 b protease or 200 pM genotype 3a protease, 20 μM NS4A peptide, and 4 μM substrate (genotype 1b) or 2 μM substrate (genotype 3a). Inhibitor concentrations varied from 100 nM to 5 pM in 3-fold dilutions, and no-inhibitor controls were included.
Compound dilutions were made in DMSO at 20× final concentration. Reaction mixtures were prepared in 96-well assay plates. A solution of enzyme and NS4A peptide in assay buffer (25 μL volume with both reagents at 4× final concentration) was mixed with 45 μL assay buffer and 5 μL of either inhibitor or DMSO, and pre-incubated at room temperature for 1 hour. The reaction was started by addition of 25 μL substrate solution at 4× final concentration. Plates were mixed vigorously for 5-10 seconds and reactions were allowed to proceed for 90 minutes, fluorescence was measured every 30 s between 90 and 120 minutes reaction time using a Tecan InfiniTe M1000 or PerkinElmer Envision multimode plate reader with an excitation wavelength of 340 nm and an emission wavelength of 490 nm.
Rates were calculated from the progress curves at steady state, in the time frame of 90-120 minutes after addition of substrate. To determine the Ki, rates were plotted as a function of inhibitor concentration, and the data were fit with equation 1 (Morrison, J. F., Biochimica et Biophysica Acta 1969, 185, 269-286) to calculate Ki^app using GraphPad Prism 5. Active fraction of enzyme was determined by active site titration with known potent inhibitors. Ki was calculated from Ki^app/(1+[[S]/Km]).

[6] = test system: genotype 1b (Con1) stable HCV replicon in Huh-7-derived cells; assay: Stable subgenomic HCV replicon EC50, genotype 1b (Renilla luciferase); type: cell-based, hepatitis C virus; details: stable replicon genotype 1b, 72 h, read-out: EC50 1B RLUC
How it was run: as §1

[7] = test system: genotype 1b (Con1) wild type transient HCV replicon in Huh-7-derived cells; assay: Transient-transfected HCV replicon EC50, genotype 1b wild type; type: cell-based, hepatitis C virus; details: transient-transfected replicon genotype 1b wild type, 72 h, read-out: EC50 1B WT
[8] = test system: genotype 3a (S52) stable HCV replicon in Huh-7-derived cells; assay: Stable subgenomic HCV replicon EC50, genotype 3a (Renilla luciferase); type: cell-based, hepatitis C virus; details: 72 h, read-out: EC50 3A RLUC
[9] = test system: genotype 4a (ED43) stable HCV replicon in Huh-7-derived cells; assay: Stable subgenomic HCV replicon EC50, genotype 4a (Renilla luciferase); type: cell-based, hepatitis C virus; details: 72 h, read-out: EC50 4A RLUC
How it was run: as §1

[10] = test system: genotype 1a (H77) wild type transient HCV replicon in Huh-7-derived cells; assay: Transient-transfected HCV replicon EC50, genotype 1a wild type; type: cell-based, hepatitis C virus; details: transient-transfected replicon genotype 1a wild type, 72 h, read-out: EC50 1A WT
[11] = test system: genotype 3a (S52) wild type transient HCV replicon in Huh-7-derived cells; assay: Transient-transfected HCV replicon EC50, genotype 3a wild type; type: cell-based, hepatitis C virus; details: transient-transfected replicon genotype 3a wild type, 72 h, read-out: EC50 3A WT
[12] = Hepatitis C virus, read-out: EC50 1B D168A, transient-transfected replicon genotype 1b D168A resistant variant, 72 h
[13] = Hepatitis C virus, read-out: EC50 1A R155K, transient-transfected replicon genotype 1a R155K resistant variant, 72 h

HCV NS3 protease domain genotype 3a, sequence (Q81258 whole entry, looked up, the tested form may be a part): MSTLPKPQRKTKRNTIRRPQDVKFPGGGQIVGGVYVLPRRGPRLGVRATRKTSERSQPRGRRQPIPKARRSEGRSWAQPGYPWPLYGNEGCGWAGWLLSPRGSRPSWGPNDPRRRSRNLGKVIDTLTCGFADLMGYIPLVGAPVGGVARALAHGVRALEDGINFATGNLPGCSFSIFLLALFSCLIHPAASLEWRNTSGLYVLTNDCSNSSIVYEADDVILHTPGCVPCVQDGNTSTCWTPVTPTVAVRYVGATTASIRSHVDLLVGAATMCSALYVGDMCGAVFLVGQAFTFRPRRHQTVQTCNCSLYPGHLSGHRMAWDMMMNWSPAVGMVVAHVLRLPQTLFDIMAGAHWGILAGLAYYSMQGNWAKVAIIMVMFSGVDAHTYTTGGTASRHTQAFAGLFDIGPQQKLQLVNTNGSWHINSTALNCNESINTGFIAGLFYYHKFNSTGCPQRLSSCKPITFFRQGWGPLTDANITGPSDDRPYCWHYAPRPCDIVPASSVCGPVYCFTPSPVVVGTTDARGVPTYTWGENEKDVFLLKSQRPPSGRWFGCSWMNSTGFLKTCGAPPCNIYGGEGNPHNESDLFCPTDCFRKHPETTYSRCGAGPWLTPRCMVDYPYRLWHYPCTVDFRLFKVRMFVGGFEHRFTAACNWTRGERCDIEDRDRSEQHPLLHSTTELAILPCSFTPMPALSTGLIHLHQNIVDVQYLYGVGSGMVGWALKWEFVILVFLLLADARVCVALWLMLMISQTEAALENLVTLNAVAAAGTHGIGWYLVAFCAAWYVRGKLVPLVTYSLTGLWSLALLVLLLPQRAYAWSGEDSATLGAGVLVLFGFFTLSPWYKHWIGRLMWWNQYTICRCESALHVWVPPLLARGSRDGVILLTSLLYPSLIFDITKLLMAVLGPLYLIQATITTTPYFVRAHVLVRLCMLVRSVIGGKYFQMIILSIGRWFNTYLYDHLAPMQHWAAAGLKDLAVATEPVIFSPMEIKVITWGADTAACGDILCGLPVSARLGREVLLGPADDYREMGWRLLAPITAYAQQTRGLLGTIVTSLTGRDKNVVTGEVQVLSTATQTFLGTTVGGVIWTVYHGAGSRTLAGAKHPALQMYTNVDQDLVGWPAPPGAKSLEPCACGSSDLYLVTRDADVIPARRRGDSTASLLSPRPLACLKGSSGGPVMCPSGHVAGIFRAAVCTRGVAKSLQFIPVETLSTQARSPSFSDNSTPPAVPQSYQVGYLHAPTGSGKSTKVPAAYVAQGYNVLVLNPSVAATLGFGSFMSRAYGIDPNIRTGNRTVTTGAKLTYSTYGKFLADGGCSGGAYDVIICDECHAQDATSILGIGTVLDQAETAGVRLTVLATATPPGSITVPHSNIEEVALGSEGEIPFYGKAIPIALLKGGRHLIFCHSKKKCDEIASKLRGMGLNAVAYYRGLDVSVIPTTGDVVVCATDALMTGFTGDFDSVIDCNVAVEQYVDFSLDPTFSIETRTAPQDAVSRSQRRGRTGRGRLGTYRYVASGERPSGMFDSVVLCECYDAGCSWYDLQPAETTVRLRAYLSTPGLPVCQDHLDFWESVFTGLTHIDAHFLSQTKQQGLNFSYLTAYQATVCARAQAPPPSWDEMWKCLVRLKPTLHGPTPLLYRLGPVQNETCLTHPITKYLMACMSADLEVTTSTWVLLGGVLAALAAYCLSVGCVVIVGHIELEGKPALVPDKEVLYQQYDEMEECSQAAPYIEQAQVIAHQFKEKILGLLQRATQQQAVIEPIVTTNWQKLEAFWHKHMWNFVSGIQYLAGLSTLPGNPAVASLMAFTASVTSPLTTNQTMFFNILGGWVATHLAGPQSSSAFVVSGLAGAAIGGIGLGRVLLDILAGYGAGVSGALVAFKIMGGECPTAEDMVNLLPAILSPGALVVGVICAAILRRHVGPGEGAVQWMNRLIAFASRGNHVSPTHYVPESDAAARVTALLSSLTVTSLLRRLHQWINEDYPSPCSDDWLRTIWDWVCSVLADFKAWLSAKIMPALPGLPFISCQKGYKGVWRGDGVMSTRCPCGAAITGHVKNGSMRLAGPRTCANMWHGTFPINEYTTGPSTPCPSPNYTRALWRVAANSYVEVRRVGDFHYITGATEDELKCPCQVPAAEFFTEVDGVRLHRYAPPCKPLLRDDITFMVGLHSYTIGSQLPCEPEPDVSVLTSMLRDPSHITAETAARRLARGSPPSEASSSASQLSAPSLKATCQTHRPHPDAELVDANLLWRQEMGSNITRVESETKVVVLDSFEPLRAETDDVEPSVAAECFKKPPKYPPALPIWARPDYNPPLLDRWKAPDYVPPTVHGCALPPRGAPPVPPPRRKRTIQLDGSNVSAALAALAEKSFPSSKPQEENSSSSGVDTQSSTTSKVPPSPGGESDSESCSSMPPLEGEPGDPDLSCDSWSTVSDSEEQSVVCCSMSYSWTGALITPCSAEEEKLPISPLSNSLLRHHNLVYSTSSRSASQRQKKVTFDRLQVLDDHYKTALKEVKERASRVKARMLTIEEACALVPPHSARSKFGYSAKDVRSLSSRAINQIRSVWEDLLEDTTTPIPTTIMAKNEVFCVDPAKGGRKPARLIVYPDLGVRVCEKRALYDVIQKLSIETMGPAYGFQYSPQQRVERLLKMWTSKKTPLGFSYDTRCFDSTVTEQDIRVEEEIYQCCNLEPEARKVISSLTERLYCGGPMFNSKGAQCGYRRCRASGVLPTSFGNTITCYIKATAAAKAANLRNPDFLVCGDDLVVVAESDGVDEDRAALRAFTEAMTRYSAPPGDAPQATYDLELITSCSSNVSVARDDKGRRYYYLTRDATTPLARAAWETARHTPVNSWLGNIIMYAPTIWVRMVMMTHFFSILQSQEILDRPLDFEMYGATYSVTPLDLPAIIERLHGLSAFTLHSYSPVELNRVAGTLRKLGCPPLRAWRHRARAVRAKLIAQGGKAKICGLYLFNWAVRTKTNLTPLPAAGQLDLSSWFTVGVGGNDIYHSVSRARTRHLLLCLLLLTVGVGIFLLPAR

SMILES	Ki [5]	EC50 ([1]; Hepatitis C virus)	EC50 [2, 12]	EC50 ([3]; Hepatitis C virus)	EC50 [4, 13]	EC50 ([6]; Hepatitis C virus)	EC50 ([7]; Hepatitis C virus)	EC50 ([8]; Hepatitis C virus)	EC50 ([9]; Hepatitis C virus)	EC50 ([10]; Hepatitis C virus)	EC50 ([11]; Hepatitis C virus)	also measured
CC[C@@H]1[C@@H]2CN(C(=O)[C@H](C(C)(C)C)NC(=O)O[C@@H]3C[C@H]3CC/C=C/C(F)(F)c3nc4ccc(OC)cc4nc3O2)[C@@H]1C(=O)N[C@]1(C(=O)NS(=O)(=O)C2(C)CC2)C[C@H]1C(F)F [Example 89]	0.05 nM											EC50 [1]: 6 nM; EC50 ([2]; transient-transfected replicon genotype 1b D168A resistant variant, read-out: EC50 1B D168A): 5.1 nM; EC50 [3]: 4.3 nM; EC50 ([4]; transient-transfected replicon genotype 1a R155K resistant variant, read-out: EC50 1A R155K): 3.7 nM; EC50 [6]: 6.1 nM; EC50 [7]: 3.2 nM; EC50 ([8]; stable replicon genotype 3a, Renilla luciferase): 19 nM; EC50 ([9]; stable replicon genotype 4a, Renilla luciferase): 4.6 nM; EC50 [10]: 6 nM; EC50 [11]: 5.5 nM
CC[C@@H]1[C@@H]2CN(C(=O)[C@H](C(C)(C)C)NC(=O)O[C@@H]3C[C@H]3CCCC3CC3c3nc4ccc(OC)cc4nc3O2)[C@@H]1C(=O)N[C@]1(C(=O)NS(=O)(=O)C2(C)CC2)C[C@H]1C(F)F (stereo partly drawn) [Example 36, (1aR,5S,8S,9S,10R,21aR)-5-tert-butyl-N-[(1R,2R)-2-(difluoromethyl)-1-{[(1-methylcyclopropyl)sulfonyl]carbamoyl}cyclopropyl]-9-ethyl-14-methoxy-3,6-dioxo-1a,3,4,5,6,9,10,17b,18,18a, 19,20,21,21a-tetradecahydro-1H,8H-7,10-methanodicyclopropa[13,14:18,19][1,10,3,6]dioxadiazacyclononadecino[11,12-b]quinoxaline-8-carboxamide]	1.7 nM	23 nM	333 nM	53 nM	271 nM	14 nM	9.4 nM	585 nM	9.1 nM	16 nM	128 nM	
CC[C@@H]1[C@@H]2CN(C(=O)[C@H](C(C)(C)C)NC(=O)O[C@@H]3CCCC[C@H]3CCCCCc3nc4ccc(OC)cc4nc3O2)[C@@H]1C(=O)N[C@]1(C(=O)NS(=O)(=O)C2CC2)C[C@H]1C(F)F [Example 66, (4aR,8S,11 S,12S,13R,25aR)-8-tert-butyl-N-[(1R,2R)-1-[(cyclopropylsulfonyl)carbamoyl]-2-(difluoromethyl)cyclopropyl]-12-ethyl-17-methoxy-6,9-dioxo-2,3,4,4a,6,7,8,9,12,13,21,22,23,24,25,25a-hexadecahydro-1H,11H-10,13-methanoquinoxalino[2,3-k][1,10,3,6]benzodioxadiazacyclononadecine-11-carboxamide]	0.06 nM	37 nM	396 nM	105 nM	240 nM	20 nM	14 nM	1790 nM	25 nM	35 nM	735 nM	
COc1ccc2nc3c(nc2c1)O[C@H]1CN(C(=O)[C@H](C(C)(C)C)NC(=O)O[C@]2(C)C[C@H]2CCCCC3)[C@H](C(=O)N[C@]2(C(=O)NS(=O)(=O)C3(C)CC3)C[C@H]2C(F)F)[C@@H]1C [Example 44, (1aR,5S,8S,9S,10R,22aR)-5-tert-butyl-N-[(1R,2R)-2-(difluoromethyl)-1-{[(1-methylcyclopropyl)sulfonyl]carbamoyl}cyclopropyl]-14-methoxy-1a,9-dimethyl-3,6-dioxo-1,1a,3,4,5,6,9,10,18,19,20,21,22,22a-tetradecahydro-8H-7,10-methanocyclopropa[18,19][1,10,3,6]dioxadiazacyclononadecino[11,12-b]quinoxaline-8-carboxamide]	0.08 nM	3.1 nM	15 nM	2.9 nM	4 nM	2.1 nM	1.4 nM	53 nM	2.2 nM	2.4 nM	7 nM	
CCOc1ccc2nc3c(nc2c1)O[C@H]1CN(C(=O)[C@H](C(C)(C)C)NC(=O)O[C@@H]2C[C@H]2CCCCC3)[C@H](C(=O)N[C@]2(C(=O)NS(=O)(=O)C3(C)CC3)C[C@H]2C(F)F)[C@@H]1CC [Example 69, (1aR,5S,8S,9S,10R,22aR)-5-tert-butyl-N-[(1R,2R)-2-(difluoromethyl)-1-{[(1-methylcyclopropyl)sulfonyl]carbamoyl}cyclopropyl]-14-ethoxy-9-ethyl-3,6-dioxo-1,1a,3,4,5,6,9,10,18,19,20,21,22,22a-tetradecahydro-8H-7,10-methanocyclopropa[18,19][1,10,3,6]dioxadiazacyclononadecino[11,12-b]quinoxaline-8-carboxamide]	0.17 nM	5.2 nM	28 nM	11 nM	15 nM	4.9 nM	3.9 nM	64 nM	5.8 nM	8.2 nM	42 nM	
CC[C@@H]1[C@@H]2CN(C(=O)[C@H](C(C)(C)C)NC(=O)O[C@]3(C)C[C@H]3CCCCC(F)(F)c3nc4ccc(OC)cc4nc3O2)[C@@H]1C(=O)N[C@]1(C(=O)NS(=O)(=O)C2(C)CC2)C[C@H]1C(F)F [Example 63, (1aR,5S,8S,9S,10R,22aR)-5-tert-butyl-N-[(1R,2R)-2-(difluoromethyl)-1-{[(1-methylcyclopropyl)sulfonyl]carbamoyl}cyclopropyl]-9-ethyl-18,18-difluoro-14-methoxy-1a-methyl-3,6-dioxo-1,1a,3,4,5,6,9,10,18,19,20,21,22,22a-tetradecahydro-8H-7,10-methanocyclopropa[18,19][1,10,3,6]dioxadiazacyclononadecino[11,12-b]quinoxaline-8-carboxamide]	0.01 nM	4.2 nM	3.4 nM	3.2 nM	4 nM	2.9 nM	2.1 nM	11 nM	3.2 nM	4.1 nM	6.9 nM	
